Each compound was assayed against GDP-loaded KRAS G12D (Homo sapiens, UniProt P01116, G12D) (assay: KRAS G12D Probe Displacement Assay). Conditions: KRAS G12D 0.5 nM, biotinylated probe 2 4 nM; Table 6 letters; read-out: KRAS G12D Probe Displacement Assay IC50 (class).
Assay type: binding

GDP-loaded KRAS G12D, sequence (P01116 1-188 isoform P01116-2 G12D): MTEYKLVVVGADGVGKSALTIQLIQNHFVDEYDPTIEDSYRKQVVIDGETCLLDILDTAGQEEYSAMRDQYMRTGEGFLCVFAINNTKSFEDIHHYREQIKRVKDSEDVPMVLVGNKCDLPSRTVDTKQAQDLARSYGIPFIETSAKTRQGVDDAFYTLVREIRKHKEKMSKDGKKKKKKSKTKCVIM

IC50, < 50 nM:
CC1(COc2nc(N3CC4CCC(C3)N4)c3cc(C(F)(F)F)c(-c4ccc(F)c5sc(N)nc45)c(F)c3n2)CCC(=O)N1 (stereo not shown) [Example E212, 5-(((7-(2-amino-7-fluorobenzo[d]thiazol-4-yl)-4-(3,8-diazabicyclo[3.2.1]octan-3-yl)-8-fluoro-6-(trifluoromethyl)quinazolin-2-yl)oxy)methyl)-5-methylpyrrolidin-2-one]
Cc1cc(N)nc(-c2c(Cl)cc3c(N4CC5CCC(C4)N5)nc(OCC4(CO)CCOCC4)nc3c2F)c1C(F)(F)F [Example E196, (4-(((7-(6-amino-4-methyl-3-(trifluoromethyl)pyridin-2-yl)-4-(3,8-diazabicyclo[3.2.1]octan-3-yl)-6-chloro-8-fluoroquinazolin-2-yl)oxy)methyl)tetrahydro-2H-pyran-4-yl)methanol]
Nc1nc2c(-c3c(C(F)(F)F)cc4c(N5CC6CCC(C5)N6)nc(OCCC5(CCO)COC5)nc4c3F)ccc(F)c2s1 [Example E172, 2-(3-(2-((7-(2-amino-7-fluorobenzo[d]thiazol-4-yl)-4-(3,8-diazabicyclo[3.2.1]octan-3-yl)-8-fluoro-6-(trifluoromethyl)quinazolin-2-yl)oxy)ethyl)oxetan-3-yl) ethan-1-ol]
C[C@@H](CN1C2CCC1CC(C#N)C2)Oc1nc(N2CC3CCC(C2)N3)c2cc(Cl)c(-c3ccc(F)c4sc(N)c(C#N)c34)c(F)c2n1 (stereo partly drawn) [Example E115, 8-((2S)-2-((7-(2-amino-3-cyano-7-fluorobenzo[b]thiophen-4-yl)-4-(3,8-diazabicyclo[3.2.1]octan-3-yl)-6-chloro-8-fluoroquinazolin-2-yl)oxy)propyl)-8-azabicyclo [3.2.1]octane-3-carbonitrile]
CN1CCCC1(CC#N)COc1nc(N2CC3CCC(C2)N3)c2cc(C(F)(F)F)c(-c3ccc(F)c4sc(N)nc34)c(F)c2n1 (stereo not shown) [Example E121, 2-(2-(((7-(2-amino-7-fluorobenzo[d]thiazol-4-yl)-4-(3,8-diazabicyclo[3.2.1]octan-3-yl)-8-fluoro-6-(trifluoromethyl)quinazolin-2-yl)oxy)methyl)-1-methylpyrrolidin-2-yl)acetonitrile]
N#CC1(CCOc2nc(N3CC4CCC(C3)N4)c3cc(C(F)(F)F)c(-c4ccc(F)c5sc(N)nc45)c(F)c3n2)CC1 [Example E155]
Nc1nc2c(-c3c(C(F)(F)F)cc4c(N5CC6CCC(C5)N6)nc(OCCc5cccnc5)nc4c3F)ccc(F)c2s1 [Example E184, 4-(4-(3,8-diazabicyclo[3.2.1]octan-3-yl)-8-fluoro-2-(2-(pyridin-3-yl)ethoxy)-6-(trifluoromethyl)quinazolin-7-yl)-7-fluorobenzo [d]thiazol-2-amine]
N#CCCNC1C[C@H]2CC[C@@H]1N2c1nc(OC[C@@]23CCCN2C[C@H](F)C3)nc2c(F)c(-c3ccc(F)c4sc(N)nc34)c(C(F)(F)F)cc12 (stereo partly drawn) [Example E124, 3-(((1S,4R)-7-(7-(2-amino-7-fluorobenzo[d]thiazol-4-yl)-8-fluoro-2-(((2R,7aS)-2-fluorotetrahydro-1H-pyrrolizin-7a(5H)-yl)methoxy)-6-(trifluoromethyl)quinazolin-4-yl)-7-azabicyclo[2.2.1]heptan-2-yl)amino)propanenitrile]
CC12CC(COc3nc(N4CC5CCC(C4)N5)c4cc(C(F)(F)F)c(-c5ccc(F)c6sc(N)nc56)c(F)c4n3)(CO1)C2 [Example E174, 4-(4-(3,8-diazabicyclo[3.2.1]octan-3-yl)-8-fluoro-2-((1-methyl-2-oxabicyclo[2.1.1]hexan-4-yl)methoxy)-6-(trifluoromethyl)quinazolin-7-yl)-7-fluorobenzo[d] thiazol-2-amine]
Nc1nc2c(-c3c(C(F)(F)F)cc4c(N5CC6CCC(C5)N6)nc(OCC56CC(O)(C5)C6)nc4c3F)ccc(F)c2s1 [Example E222, 3-(((7-(2-amino-7-fluorobenzo[d]thiazol-4-yl)-4-(3,8-diazabicyclo [3.2.1]octan-3-yl)-8-fluoro-6-(trifluoromethyl)quinazolin-2-yl)oxy)methyl)bicyclo[1.1.1]pentan-1-ol]

— US20240140957A1, “BRIDGED COMPOUNDS AS KRAS G12D INHIBITOR AND DEGRADER AND THE USE THEREOF” (BeiGene Switzerland GmbH, priority 2021, published 2024)
